Source: PubChem BioAssay AID1288 (Columbia University Molecular Screening Center, 2008)
Activity calls are given as the source filed them. The rule behind the calls is not given here.

Assay: inhibitors of TNFa-induced E-selectin expression, confirmation, imaging, retest plus dose response, cell count (AID 1288);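 note: 0% = stimulated vehicle wells and 100% = unstimulated vehicle wells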
Conditions: human endothelial cells, TNFa-induced E-selectin, imaging; at 2 µM; stronger effect = higher value
With Cc1cc(C)c(C#N)c(=N)o1 the inhibition was -5.81% (inactive). With COc1cc(C2C(C#N)=C(N)Oc3cc(C)n(CCc4ccccc4)c(=O)c32)cc2c1OCO2 (stereo not given) the inhibition was 4.3% (inactive). With O=C(c1ccccc1)N1CCN(c2ccccc2F)CC1 the inhibition was 9.93% (inactive). In the case of CC(C)CC(=O)n1sc(NC(=O)c2ccccc2)nc1=O, the inhibition is reported as -4.08% (inactive). With O=c1ccc2ccc(OCc3nnc(-c4ccccc4Br)o3)cc2o1 the inhibition was 2.48% (inactive). With CCOc1ccc(N2CC(C(=O)NCCCN3CCOCC3)CC2=O)cc1 (stereo not given) the inhibition was 11.2% (inactive). For COc1ccc(C2C(C#N)=C(SCC(=O)Nc3ccc(C)cc3)NC3=C2C(=O)CC(C)(C)C3)cc1 (stereo not given), the inhibition was 4.4% (inactive). For Cc1cc(=O)[nH]c(SCC(=O)NCc2ccco2)n1, the inhibition was 5.37% (inactive). For CCN1CCN(Cc2ccc(C)cc2)CC1, the inhibition was 6.18% (inactive). In the case of O=C(Cc1ccc(-c2ccccc2)cc1)NCCN1CCOCC1, the inhibition is reported as 2.16% (inactive). In the case of CCOC(=O)c1cccc(NC(=O)CSc2nnc(-c3ccoc3C)n2CCOC)c1, the inhibition is reported as -4.74% (inactive). In the case of CCOc1ccc(NC(=O)COC(=O)C23CC4CC(CC(C4)C2)C3)c([N+](=O)[O-])c1, the inhibition is reported as 1.77% (inactive). With O=C(CSc1nc2ccccc2[nH]1)N1CCN(S(=O)(=O)c2ccc(Cl)cc2)CC1 the inhibition was 3.87% (inactive). With CC(OC(=O)c1ccco1)C(=O)NC1CCCCC1 (stereo not given) the inhibition was 18.2% (inactive). With COc1ccc(/C(O)=C2/C(=O)C(=O)N(Cc3cccnc3)C2c2ccncc2)cc1F (stereo not given) the inhibition was 19.1% (inactive). With COc1ccc(-n2nc([N+](=O)[O-])c(=NCCc3ccc(Cl)cc3)n2O)cc1 the inhibition was 6.09% (inactive). In the case of O=S1(=O)CCN(C(CCO)c2cccc(C(F)(F)F)c2)CC1 (stereo not given), the inhibition is reported as 4.23% (inactive). In the case of COc1ccc(-c2cc(C)nc(SCc3cccc(C(=O)O)c3)n2)cc1, the inhibition is reported as 16.2% (inactive). In the case of COCCNC(=O)c1ccccc1NC(=O)c1cccc([N+](=O)[O-])c1C, the inhibition is reported as 0.34% (inactive). With CCn1nnnc1-c1ccc(OC)c(S(=O)(=O)NCc2ccccc2)c1 the inhibition was 5.72% (inactive). In the case of CCN(CC)S(=O)(=O)c1ccc(-c2nnc(SCC(=O)Nc3ccc(OC)cc3)o2)cc1, the inhibition is reported as 23.9% (inactive). With COc1ccc(C2=NNC(c3cccs3)=Nc3ccc(OC)cc32)cc1 the inhibition was 17.8% (inactive). For O=C1CC(Sc2nnc(-c3ccccc3O)o2)C(=O)N1c1ccccc1 (stereo not given), the inhibition was 9.02% (inactive). For O=C(c1ccc(COCC(F)(F)F)o1)N1CCCCCC1, the inhibition was 5.74% (inactive). In the case of Cc1nc2c(ccc3nc(NC(=O)c4ccc5c(c4)OCCO5)sc32)s1, the inhibition is reported as 3.48% (inactive). With Cc1ccc(/C=c2\sc3n(c2=O)CN(c2cccc(Br)c2)CN=3)o1 the inhibition was 3.58% (inactive). For COc1ccccc1-c1nc(-c2ccc(C)nc2OC)no1, the inhibition was 0.65% (inactive). In the case of N#CCc1ccc(NS(=O)(=O)c2cccs2)cc1, the inhibition is reported as 7.74% (inactive). In the case of COc1ccc(Br)cc1CN(C)CC(=O)Nc1c(Cl)cccc1Cl, the inhibition is reported as 0.05% (inactive). In the case of COc1ccc(C)cc1S(=O)(=O)N(C)CC(=O)N1CCCCC1, the inhibition is reported as -0.62% (inactive). With COc1ccc(N2C(=O)CCC2(C#N)c2ccc(Br)cc2)cc1 (stereo not given) the inhibition was -2.45% (inactive). With Cc1ccc(N2CCN(/N=C/c3cccs3)CC2)cc1 the inhibition was 1.13% (inactive). With O=C(CCn1nnc2ccccc21)Nc1nnc(Cc2ccc(F)cc2)s1 the inhibition was 5.36% (inactive). In the case of COc1ccc(N/C=C/C(=O)c2ccc(C)cc2)c([N+](=O)[O-])c1, the inhibition is reported as 17.3% (inactive). For O=C1c2cccc(OCC(=O)N3CCCc4ccccc43)c2CCN1Cc1ccc(Br)cc1, the inhibition was -5.27% (inactive). With Cc1ccc2oc(=O)n(CCCOc3ccccc3)c2c1 the inhibition was 26.2% (inactive). For Cc1ccccc1Cn1ccc(NC(=O)c2cnn3c2NC(c2ccccc2)CC3C(F)(F)F)n1 (stereo not given), the inhibition was 2.9% (inactive). For N#Cc1cccc(-n2c(-c3ccccc3)nnc2-c2ccccc2)c1C#N, the inhibition was 4.7% (inactive). With CC1=NN(C(C)C)C(=O)C1 the inhibition was 25.1% (inactive). For CN1CCN(S(=O)(=O)c2ccc(NC(=O)c3ccc(F)cc3)cc2)CC1, the inhibition was 5.58% (inactive). For CC(=O)c1c(C)[nH]c(C(=O)Nc2ccccc2N2CCOCC2)c1C, the inhibition was 4.19% (inactive). In the case of Cc1c(N=C/C=C2\N(C)c3ccccc3C2(C)C)c(=O)n(-c2ccccc2)n1C, the inhibition is reported as 1.21% (inactive). In the case of O=C(Oc1ccccc1N1C(=O)C2CC=CCC2C1=O)c1ccc(Br)cc1 (stereo not given), the inhibition is reported as 5.75% (inactive). With CCOC(=O)c1c(NC(=O)COC)sc2c1CCCC2 the inhibition was 17.5% (inactive). For Clc1ccc(-c2nnc(-c3ccco3)o2)cc1, the inhibition was 6.81% (inactive). In the case of COCc1cc(C)nc(OCC(=O)N/N=C/c2ccc(-c3cc([N+](=O)[O-])ccc3C)o2)c1C#N, the inhibition is reported as 19% (inactive). With N#Cc1cc2sc3nnc(-c4ccncc4)n3c2cc1C#N the inhibition was 24.9% (inactive). For COc1c(Cl)cc(Cl)cc1C(=O)Nc1ccc(NC(C)=O)cc1, the inhibition was 5.32% (inactive). For COc1ccc(Nc2nc(C)cc(C)c2C#N)cc1OC, the inhibition was 6.96% (inactive). In the case of CCC(C(=O)OC)n1c(-c2ccccc2)nc2ccccc2c1=O (stereo not given), the inhibition is reported as 10.1% (inactive).
